Patent US8114843B2, “Photoreactive regulator of protein function and methods of use thereof” (The Regents of the University of California, priority 2005, dated 2012)

Legend:
[1] = test system: cultured hippocampal neurons; assay: Live/Dead assay after PAL treatment; assay type: cell-based; conditions: 200 μM
Source text: Live/Dead assay. After PAL treatment, hippocampal neurons were processed for the live dead assay (Molecular Probes) according to the manufacturer's instructions. Cells were counted in 4-8 fields for each treatment condition.

[2] = target: T1, Shaker channel with engineered cysteine (E422C) (Drosophila melanogaster, UniProt P08510, DEL6-46/E422C); assay: PAL photoswitching, whole-cell patch clamp in HEK293 cells; assay type: cell-based; conditions: n=6
T1 construct: expressed in transfected cells; host or cells: HEK293
Experimental: (§1) Cell culture and transfection. HEK293 cells were grown in DMEM containing 5% fetal bovine serum, at 37° C., 7% CO2. For electrophysiology, cells were plated at 12×10^5 cells/cm^2 on poly-L-lysine coated coverslips and transfected using the calcium phosphate method. Recordings were performed 24-36 hours after transfection.
(§2) PAL attachment. HEK293 and hippocampal cells were rinsed in extracellular solution containing in mM: 138 NaCl, 1.5 KCl, 1.2 MgCl2, 2.5 CaCl2, 5 HEPES, 10 glucose and incubated at 37° C. in the dark with 200-250 μM PAL for 15 minutes. For slices, AAQ was diluted to 200 μM in aCSF and treatment was performed in the dark at room temperature for 10 minutes.
(§3) Electrophysiological recording. Recordings from HEK293 and hippocampal neurons were made in the whole-cell patch clamp configuration using a PC-501A amplifier (Warner Instruments). Pulse protocols and measurements were carried out with pCLAMP and a Digidata 1322 interface (Axon Instruments). For voltage-clamp experiment, cells were held at −70 mV. Data was recorded at 20 kHz and filtered at 2 kHz. Recording pipettes with 2.5-4 MΩ resistance were filled with intracellular solution containing in mM: 10 NaCl, 135 K-gluconate, 10 HEPES, 2 MgCl2, 2 MgATP, 1 EGTA, pH 7.4.
(§4) Illumination was provided using a xenon lamp (Sutter Instruments) with narrow band pass filters (380 BP10 for UV and 500 BP5 for visible light respectively). Excitation filters were changed using a lambda 10-2 filter changer (Sutter Instruments) controlled via pCLAMP software.
(§5) Percent photoswitching was defined as the difference between current in UV and visible light divided by current in UV. All data shown in bar graphs are averages±standard error of the mean.

wild-type Shaker (E422) = target: T2, wild-type Shaker (E422) (Drosophila melanogaster, UniProt P08510, DEL6-46); assay: as above; assay type: cell-based; conditions: n=6
T2 construct: expressed in transfected cells; host or cells: HEK293
Experimental: as §1, §2, §3, §4, §5

rat retina = assay: AAQ injection into the rat eye (ERG, retinal toxicity); assay type: in vivo
Experimental: Rats were dark-adapted overnight, and the entire procedure was done under very dim red light. Rats were anesthetized and placed in a standard electroretinogram (ERG) setup. Recording electrodes were embedded in contact-like cups, which were mounted onto each eye with a conductive adherent fluid. Reference electrodes were placed in the mouth. A light source emitted brief flashes of white light at various intensities. The electrical response of the retina to each light flash was recorded; three trials per intensity were averaged together. Under normal conditions, the ERG will consist of a small downward deflection (A-wave), which reflects the activity of photoreceptors, and a larger upward deflection (B-wave), which reflects the activity of bipolar cells.

Purkinje neurons = assay: Loose-patch extracellular recording in cerebellar slices; assay type: cell-based, rat; conditions: 200 μM for 10 minutes; full-field 360 nm light; n=5
Experimental: Brain Slice Preparation. Parasagittal cerebellar slices were prepared using standard techniques approved by the UCLA Animal Care Committee. […] PAL attachment. […] For cerebellar slices, neuronal cell bodies were visualized using an upright microscope with a 40× water immersion lens and equipped with an infrared-DIC enhancement. Loose-patch extracellular recordings were performed using an Axopatch 200B amplifier (Axon Instruments). Electrophysiological recordings were filtered at 1 KHz and digitized at 2-4 KHz. Pipettes were typically 1.4-2.0 MΩ for recordings from PNs and 3.0-3.5 MΩ for interneurons and filled with aCSF. […] All recordings were performed at room temperature. […] Excitation filters were changed using a lambda 10-2 filter changer (Sutter Instruments) controlled via pCLAMP software.

[3] = test system: voltage-gated outward current (endogenous K+ channels) in cultured hippocampal neurons; assay: Photocontrol of K+ current in cultured hippocampal neurons; assay type: cell-based, rat; conditions: 200 μM, 15 min in the dark
Experimental: Hippocampal neurons were prepared from neonatal Sprague-Dawley rats according to standard procedures (Goslin) and grown on poly-L-lysine coated coverslips in MEM supplemented with 5% fetal bovine serum, B27 (Invitrogen), glutamine and serum extender (BD Biosciences). Animal care and experimental protocols were approved by the UC Berkeley Animal Care and Use Committee. Recordings were performed 9-16 days after plating. The Shaker construct also contains an N-terminal deletion (Δ6-46) to minimize fast inactivation.
as §2
as §3, with “Recording pipettes with 2.5-4 MΩ resistance were filled with intracellular solution containing in mM: 10 NaCl, 135 K-gluconate, 10 HEPES, 2 MgCl2, 2 MgATP, 1 EGTA, pH 7.4.” left out

basket cells = assay: Loose-patch extracellular recording in cerebellar slices; assay type: cell-based, rat; conditions: 500 nm light; with AMPA, NMDA and GABAA receptor antagonists; n=6
Experimental: Brain Slice Preparation. Parasagittal cerebellar slices were prepared using standard techniques approved by the UCLA Animal Care Committee. The cerebellum was removed from the cranium of a 14-20 day old Sprague-Dawley rat, mounted on an agar support and sectioned parasagitally using a vibrotome (Leica VT-1000) while submerged in cold (<4° C.) artificial cerebrospinal fluid (aCSF) containing in mM: 119 NaCl, 26 NaHCO3, 11 glucose, 2.5 KCl, 2.5 CaCl2, 1.3 MgCl2, and 1 NaH2PO4 and saturated with 95% O2 and 5% CO2 Following sectioning, the […] slices were stored in 35° C. aCSF for 30 minutes and brought to room temperature for subsequent electrophysiological experiments.
as §2
For cerebellar slices, neuronal cell bodies were visualized using an upright microscope with a 40× water immersion lens and equipped with an infrared-DIC enhancement. Loose-patch extracellular recordings were performed using an Axopatch 200B amplifier (Axon Instruments). Electrophysiological recordings were filtered at 1 KHz and digitized at 2-4 KHz. […]

[4] = test system: transient inward current (voltage-gated Na+ and Ca2+ currents) in neurons; assay: Voltage-clamp of transient inward current in PAL-treated neurons; assay type: cell-based, rat; conditions: Cs+ in the patch pipette
Experimental: as §3, with “Recording pipettes with 2.5-4 MΩ resistance were filled with intracellular solution containing in mM: 10 NaCl, 135 K-gluconate, 10 HEPES, 2 MgCl2, 2 MgATP, 1 EGTA, pH 7.4.” left out

Kv1.4 = target: T3, Kv1.4 (Homo sapiens, UniProt P22459); assay: PAL photoswitching, whole-cell patch clamp in HEK cells; assay type: cell-based; conditions: n=6
T3 construct: expressed in transfected cells; host or cells: HEK cells
Experimental: as §1, §2, §3, §4, §5

T2 sequence (P08510 other isoform, or with tags, fused parts or gaps DEL6-46): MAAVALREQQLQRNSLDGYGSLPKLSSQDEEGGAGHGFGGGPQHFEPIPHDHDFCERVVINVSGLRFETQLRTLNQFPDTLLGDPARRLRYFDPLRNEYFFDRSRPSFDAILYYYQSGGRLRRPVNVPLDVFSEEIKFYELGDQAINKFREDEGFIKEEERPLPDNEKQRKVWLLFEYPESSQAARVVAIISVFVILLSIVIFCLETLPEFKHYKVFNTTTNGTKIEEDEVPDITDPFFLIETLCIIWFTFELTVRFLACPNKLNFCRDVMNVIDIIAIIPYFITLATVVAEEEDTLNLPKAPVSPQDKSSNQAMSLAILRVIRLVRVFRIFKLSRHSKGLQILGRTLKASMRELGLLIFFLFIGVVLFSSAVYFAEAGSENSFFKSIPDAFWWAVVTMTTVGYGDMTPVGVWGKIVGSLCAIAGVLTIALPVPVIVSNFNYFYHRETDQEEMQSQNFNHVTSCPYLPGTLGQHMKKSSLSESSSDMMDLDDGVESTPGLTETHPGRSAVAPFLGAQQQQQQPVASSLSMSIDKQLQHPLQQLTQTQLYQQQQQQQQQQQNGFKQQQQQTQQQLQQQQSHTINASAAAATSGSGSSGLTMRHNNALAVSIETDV
T3 sequence (P22459 whole entry): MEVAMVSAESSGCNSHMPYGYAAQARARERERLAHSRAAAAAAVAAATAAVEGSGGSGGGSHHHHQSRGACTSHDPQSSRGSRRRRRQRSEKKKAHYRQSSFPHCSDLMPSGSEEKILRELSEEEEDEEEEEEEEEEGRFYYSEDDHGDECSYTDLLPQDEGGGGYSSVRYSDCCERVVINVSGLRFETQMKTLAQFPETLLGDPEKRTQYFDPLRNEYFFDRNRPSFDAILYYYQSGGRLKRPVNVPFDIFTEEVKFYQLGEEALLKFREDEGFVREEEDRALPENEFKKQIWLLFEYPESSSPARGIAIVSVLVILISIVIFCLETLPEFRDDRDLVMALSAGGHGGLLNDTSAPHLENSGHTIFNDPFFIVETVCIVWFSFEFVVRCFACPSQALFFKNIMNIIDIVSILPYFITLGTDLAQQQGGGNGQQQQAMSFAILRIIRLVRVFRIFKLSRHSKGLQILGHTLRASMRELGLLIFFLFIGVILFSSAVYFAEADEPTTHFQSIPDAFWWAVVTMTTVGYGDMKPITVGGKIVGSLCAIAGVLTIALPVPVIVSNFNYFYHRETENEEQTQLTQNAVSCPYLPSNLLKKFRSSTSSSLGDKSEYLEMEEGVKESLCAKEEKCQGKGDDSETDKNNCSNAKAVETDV
T1 sequence (P08510 other isoform, or with tags, fused parts or gaps DEL6-46/E422C): as the sequence (P08510 other isoform, or with tags, fused parts or gaps DEL6-46) above, with E381C counted along it

Compound: C=CC(=O)Nc1ccc(/N=N/c2ccc(NC(=O)C[N+](CC)(CC)CC)cc2)cc1 [AAQ]
- death of neurons ([1]; 15 min): ~10%
- loss of neurons ([1]; 60 min): ~15%
- fraction of current that could be photoswitched [2]: 39±1%
- fraction of current that could be photoswitched (wild-type Shaker (E422)): 48±2%
- toxic consequences on rat retina (ERG) (rat retina; 7 days post injection): without toxic consequences
- effects on retinal neurons after injection into the vitreous humor (rat retina; rat eye): no detectable deleterious effects
- increase in firing frequency (Purkinje neurons): 42±12%
- percent of the outward current that could be photoswitched [3]: 63±8%
- enhancement of firing frequency (basket cells): 324±160%
- light-sensitivity of transient inward current [4]: does not become light-sensitive
- current turned on and off by light (Kv1.4): ~80%
